Measured values taken from PubChem BioAssay AID270 (DTP/NCI, 2004).
Several values for one entry are separate records, joined by “and”; a condition that tells them apart may be missing. Equal values may be shown once. Inconclusive results are not listed.

Tested on: BDF1 mice, s.c. Lewis lung carcinoma, T/C %
Test: NCI In Vivo Anticancer Drug Screen. Data for tumor model Lewis Lung Carcinoma (subcutaneous) in B6D2F1 (BDF1) mice
In short: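 Transplanted tumors grown in mice; compound vs vehicle dosing; endpoint survival or tumor size; ratio T/C.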

[1] = endpoint: mean tumor weight, dose: 100.0 mg/kg/injection, schedule: Q01DX011 (ip), vehicle: carboxymethylcellulose (CMC), higher = larger tumour
[2] = endpoint: median survival time, dose: 50.0 mg/kg/injection, schedule: Q01DX009 (ip), vehicle: Klucel (hydroxypropylcellulose) (HPC), higher = longer survival
[3] = endpoint: median survival time, dose: 50.0 mg/kg/injection, schedule: Q01DX009 (ip), vehicle: other, higher = longer survival
[4] = endpoint: mean tumor weight, dose: 25.0 mg/kg/injection, schedule: Q01DX011 (sc), vehicle: steriod suspending solution, higher = larger tumour
[5] = endpoint: mean tumor weight, dose: 50.0 mg/kg/injection, schedule: Q01DX011 (sc), vehicle: steriod suspending solution, higher = larger tumour

CC(C)C1C=C2CCC3C(C)(C(=O)O)CCCC3(C)C2CC1 (stereo not given)
T/C [1]: 89 % of control | T/C (endpoint: mean tumor weight, dose: 200.0 mg/kg/injection, schedule: Q01DX011 (ip), vehicle: carboxymethylcellulose (CMC), higher = larger tumour): 38 % of control

CN1CCCC1
T/C (endpoint: mean tumor weight, dose: 44.0 mg/kg/injection, schedule: Q01DX011 (ip), vehicle: carboxymethylcellulose (CMC), higher = larger tumour): 52 % of control | T/C (endpoint: mean tumor weight, dose: 66.0 mg/kg/injection, schedule: Q01DX011 (ip), vehicle: carboxymethylcellulose (CMC), higher = larger tumour): 58 % of control | T/C [1]: 69 % of control | T/C (endpoint: mean tumor weight, dose: 150.0 mg/kg/injection, schedule: Q01DX011 (ip), vehicle: carboxymethylcellulose (CMC), higher = larger tumour): 109 % of control

C=C1C(=O)O[C@@H]2[C@H]3O[C@]3(C)CCC=C(C)CC[C@@H]12
T/C (endpoint: median survival time, dose: 12.5 mg/kg/injection, schedule: Q01DX009 (ip), vehicle: Klucel (hydroxypropylcellulose) (HPC), higher = longer survival): 110 % of control | T/C (endpoint: median survival time, dose: 25.0 mg/kg/injection, schedule: Q01DX009 (ip), vehicle: Klucel (hydroxypropylcellulose) (HPC), higher = longer survival): 97 % of control | T/C [2]: 93 % of control

CN(C)CC(C(=O)c1ccc(Br)cc1)C(Br)c1ccccc1 (stereo not given)
T/C (endpoint: median survival time, dose: 5.0 mg/kg/injection, schedule: Q01DX009 (ip), vehicle: saline, higher = longer survival): 107 % of control | T/C (endpoint: median survival time, dose: 10.0 mg/kg/injection, schedule: Q01DX009 (ip), vehicle: saline, higher = longer survival): 100 % of control | T/C (endpoint: median survival time, dose: 40.0 mg/kg/injection, schedule: Q01DX009 (ip), vehicle: saline, higher = longer survival): 119 % of control

CC(=O)[O][Hg][c]1c(C)c(C)c(C)c(C)c1C
T/C (endpoint: median survival time, dose: 0.62 mg/kg/injection, schedule: Q01DX009 (ip), vehicle: Klucel (hydroxypropylcellulose) (HPC), higher = longer survival): 93 % of control | T/C (endpoint: median survival time, dose: 1.25 mg/kg/injection, schedule: Q01DX009 (ip), vehicle: Klucel (hydroxypropylcellulose) (HPC), higher = longer survival): 93 % of control | T/C (endpoint: median survival time, dose: 2.5 mg/kg/injection, schedule: Q01DX009 (ip), vehicle: Klucel (hydroxypropylcellulose) (HPC), higher = longer survival): 100 % of control | T/C (endpoint: median survival time, dose: 5.0 mg/kg/injection, schedule: Q01DX009 (ip), vehicle: Klucel (hydroxypropylcellulose) (HPC), higher = longer survival): 105 % of control | T/C (endpoint: median survival time, dose: 6.0 mg/kg/injection, schedule: Q01DX009 (ip), vehicle: Klucel (hydroxypropylcellulose) (HPC), higher = longer survival): 92 % of control | T/C (endpoint: median survival time, dose: 6.25 mg/kg/injection, schedule: Q01DX009 (ip), vehicle: Klucel (hydroxypropylcellulose) (HPC), higher = longer survival): 92 % of control

c1ccc2nc3ccccc3c-2cc1
T/C (endpoint: mean tumor weight, dose: 125.0 mg/kg/injection, schedule: Q01DX011 (ip), vehicle: saline, higher = larger tumour): 90 % of control | T/C (endpoint: mean tumor weight, dose: 250.0 mg/kg/injection, schedule: Q01DX011 (ip), vehicle: saline, higher = larger tumour): 76 % of control | T/C (endpoint: mean tumor weight, dose: 500.0 mg/kg/injection, schedule: Q01DX011 (ip), vehicle: saline, higher = larger tumour): 48 % of control | T/C (endpoint: mean tumor weight, dose: 1000.0 mg/kg/injection, schedule: Q01DX011 (ip), vehicle: saline, higher = larger tumour): 56 % of control

O=NN(CCCl)C(=O)Nc1ccc(CCO)cc1
T/C (endpoint: mean tumor weight, dose: 10.0 mg/kg/injection, schedule: Q01DX001 (ip), vehicle: carboxymethylcellulose (CMC), higher = larger tumour): 43 % of control | T/C (endpoint: mean tumor weight, dose: 20.0 mg/kg/injection, schedule: Q01DX001 (ip), vehicle: carboxymethylcellulose (CMC), higher = larger tumour): 22 % of control

COc1cccc(/C=N/NC(=O)c2ccccc2N2CCCC2)c1O
T/C (endpoint: median survival time, dose: 100.0 mg/kg/injection, schedule: Q01DX009 (ip), vehicle: olive oil, sesame oil, peanut oil, higher = longer survival): 90 % of control

N/C(=N\Cl)C(Cl)(Cl)Cl
T/C (endpoint: median survival time, dose: 6.25 mg/kg/injection, schedule: Q01DX009 (ip), vehicle: other, higher = longer survival): 101 % of control | T/C (endpoint: median survival time, dose: 12.5 mg/kg/injection, schedule: Q01DX009 (ip), vehicle: other, higher = longer survival): 110 % of control | T/C (endpoint: median survival time, dose: 25.0 mg/kg/injection, schedule: Q01DX009 (ip), vehicle: other, higher = longer survival): 100 % of control | T/C [3]: 96 % of control

C=C(C)C(=O)OCCN(C)C (tested in a mixture with another compound)
T/C [3]: 102 % of control | T/C (endpoint: median survival time, dose: 100.0 mg/kg/injection, schedule: Q01DX009 (ip), vehicle: other, higher = longer survival): 103 % of control | T/C (endpoint: median survival time, dose: 200.0 mg/kg/injection, schedule: Q01DX009 (ip), vehicle: other, higher = longer survival): 108 % of control | T/C (endpoint: median survival time, dose: 400.0 mg/kg/injection, schedule: Q01DX009 (ip), vehicle: other, higher = longer survival): 102 % of control

Cc1ccc(C(=O)/C=C/c2ccccc2O)cc1
T/C (endpoint: median survival time, dose: 37.5 mg/kg/injection, schedule: Q01DX009 (ip), vehicle: Klucel (hydroxypropylcellulose) (HPC), higher = longer survival): 105 % of control | T/C (endpoint: median survival time, dose: 75.0 mg/kg/injection, schedule: Q01DX009 (ip), vehicle: Klucel (hydroxypropylcellulose) (HPC), higher = longer survival): 111 % of control | T/C (endpoint: median survival time, dose: 150.0 mg/kg/injection, schedule: Q01DX009 (ip), vehicle: Klucel (hydroxypropylcellulose) (HPC), higher = longer survival): 108 % of control | T/C (endpoint: median survival time, dose: 300.0 mg/kg/injection, schedule: Q01DX009 (ip), vehicle: Klucel (hydroxypropylcellulose) (HPC), higher = longer survival): 89 % of control

C[C@]12C=CC(=O)C=C1CC[C@@H]1[C@@H]2C(=O)C[C@@]2(C)[C@H]1CC[C@]2(O)C(=O)CO
T/C (endpoint: mean tumor weight, dose: 6.25 mg/kg/injection, schedule: Q01DX011 (sc), vehicle: steriod suspending solution, higher = larger tumour): 53 % of control | T/C (endpoint: mean tumor weight, dose: 12.5 mg/kg/injection, schedule: Q01DX011 (sc), vehicle: steriod suspending solution, higher = larger tumour): 36 % of control | T/C [4]: 22 % of control | T/C [5]: 25 % of control | T/C [2]: 88 % of control | T/C (endpoint: median survival time, dose: 50.0 mg/kg/injection, schedule: Q01DX009 (ip), vehicle: saline with Tween-80, higher = longer survival): 102 % of control and 122 % of control | T/C (endpoint: median survival time, dose: 100.0 mg/kg/injection, schedule: Q01DX009 (ip), vehicle: Klucel (hydroxypropylcellulose) (HPC), higher = longer survival): 107 % of control | T/C (endpoint: median tumor weight (est.), dose: 50.0 mg/kg/injection, schedule: Q01DX009 (ip), vehicle: saline with Tween-80, higher = larger tumour): 70 % of control

O=C1C=CC2(CCC23C=CC(=O)O3)O1 (stereo not given)
T/C (endpoint: mean tumor weight, dose: 13.0 mg/kg/injection, schedule: Q01DX011 (ip), vehicle: saline, higher = larger tumour): 102 % of control | T/C (endpoint: mean tumor weight, dose: 30.0 mg/kg/injection, schedule: Q01DX011 (ip), vehicle: saline, higher = larger tumour): 85 % of control | T/C (endpoint: mean tumor weight, dose: 45.0 mg/kg/injection, schedule: Q01DX011 (ip), vehicle: saline, higher = larger tumour): 80 % of control and 83 % of control | T/C (endpoint: mean tumor weight, dose: 65.0 mg/kg/injection, schedule: Q01DX011 (ip), vehicle: saline, higher = larger tumour): 66 % of control

c1ccc(N/N=C2/CCN3CCCc4cccc2c43)cc1
T/C (endpoint: median survival time, dose: 12.5 mg/kg/injection, schedule: Q04DX003 (ip), vehicle: DMSO, higher = longer survival): 105 % of control | T/C (endpoint: median survival time, dose: 25.0 mg/kg/injection, schedule: Q04DX003 (ip), vehicle: DMSO, higher = longer survival): 87 % of control | T/C (endpoint: median survival time, dose: 50.0 mg/kg/injection, schedule: Q04DX003 (ip), vehicle: DMSO, higher = longer survival): 109 % of control

COc1ccc2c3c(c4cc(OC)c(OC)cc4c2c1)C[C@H]1CCCCN1C3
T/C (endpoint: mean tumor weight, dose: 0.25 mg/kg/injection, schedule: Q01DX011 (ip), vehicle: other, higher = larger tumour): 90 % of control and 100 % of control | T/C (endpoint: mean tumor weight, dose: 0.5 mg/kg/injection, schedule: Q01DX011 (ip), vehicle: other, higher = larger tumour): 190 % of control | T/C (endpoint: mean tumor weight, dose: 0.75 mg/kg/injection, schedule: Q01DX011 (ip), vehicle: other, higher = larger tumour): 87 % of control

C1=Cc2ccccc2CC1
T/C (endpoint: mean tumor weight, dose: 133.0 mg/kg/injection, schedule: Q01DX011 (ip), vehicle: other, higher = larger tumour): 121 % of control | T/C (endpoint: mean tumor weight, dose: 200.0 mg/kg/injection, schedule: Q01DX011 (ip), vehicle: other, higher = larger tumour): 46 % of control | T/C (endpoint: mean tumor weight, dose: 300.0 mg/kg/injection, schedule: Q01DX011 (ip), vehicle: other, higher = larger tumour): 45 % of control

Cc1cc(C)nc(NS(=O)(=O)c2ccc(N=Nc3nc4[nH]c(N)nc(=S)c4[nH]3)cc2)n1
T/C (endpoint: median survival time, dose: 0.78 mg/kg/injection, schedule: Q01DX009 (ip), vehicle: Klucel (hydroxypropylcellulose) (HPC), higher = longer survival): 96 % of control | T/C (endpoint: median survival time, dose: 1.56 mg/kg/injection, schedule: Q01DX009 (ip), vehicle: Klucel (hydroxypropylcellulose) (HPC), higher = longer survival): 108 % of control

C=C/C(C)=C/[C@H](C)C(=O)C[C@H](O)CC1CC(=O)NC(=O)C1
T/C (endpoint: median survival time, dose: 6.25 mg/kg/injection, schedule: Q01DX009 (ip), vehicle: saline with Tween-80, higher = longer survival): 95 % of control | T/C (endpoint: median survival time, dose: 12.5 mg/kg/injection, schedule: Q01DX009 (ip), vehicle: saline with Tween-80, higher = longer survival): 98 % of control | T/C (endpoint: median survival time, dose: 12.5 mg/kg/injection, schedule: Q04DX003 (ip), vehicle: saline with Tween-80, higher = longer survival): 98 % of control | T/C (endpoint: median survival time, dose: 25.0 mg/kg/injection, schedule: Q01DX009 (ip), vehicle: saline with Tween-80, higher = longer survival): 97 % of control | T/C (endpoint: median survival time, dose: 25.0 mg/kg/injection, schedule: Q04DX003 (ip), vehicle: saline with Tween-80, higher = longer survival): 111 % of control | T/C (endpoint: median survival time, dose: 50.0 mg/kg/injection, schedule: Q04DX003 (ip), vehicle: saline with Tween-80, higher = longer survival): 92 % of control | T/C (endpoint: median survival time, dose: 100.0 mg/kg/injection, schedule: Q04DX003 (ip), vehicle: saline with Tween-80, higher = longer survival): 101 % of control

CC(=O)Nc1cc2c(cc1Br)-c1ccccc1C2O (stereo not given)
T/C (endpoint: mean tumor weight, dose: 24.0 mg/kg/injection, schedule: Q01DX011 (ip), vehicle: saline, higher = larger tumour): 47 % of control and 62 % of control and 69 % of control | T/C (endpoint: mean tumor weight, dose: 55.0 mg/kg/injection, schedule: Q01DX011 (ip), vehicle: saline, higher = larger tumour): 31 % of control and 52 % of control and 53 % of control | T/C (endpoint: mean tumor weight, dose: 444.0 mg/kg/injection, schedule: Q01DX011 (ip), vehicle: saline, higher = larger tumour): 26 % of control | T/C (endpoint: mean tumor weight, dose: 666.0 mg/kg/injection, schedule: Q01DX011 (ip), vehicle: saline, higher = larger tumour): 19 % of control

COc1cc(OC)cc(-c2cc(=O)c3c(OC)c(OC)c(OC)c(OC)c3o2)c1
T/C [4]: 64 % of control | T/C [5]: 87 % of control | T/C (endpoint: mean tumor weight, dose: 100.0 mg/kg/injection, schedule: Q01DX011 (sc), vehicle: steriod suspending solution, higher = larger tumour): 82 % of control | T/C (endpoint: mean tumor weight, dose: 200.0 mg/kg/injection, schedule: Q01DX011 (sc), vehicle: steriod suspending solution, higher = larger tumour): 81 % of control
